Data published in the NIST ThermoML archive (doi:10.1016/j.fluid.2016.02.009).

Conditions: Liquid, Vibrating tube method

CCCCOCC [butyl ethyl ether]
Conditions	mass density [kg/m3]
283.15 K, 100 kPa	759.63
283.15 K, 5000 kPa	764.45
283.15 K, 10000 kPa	768.96
283.15 K, 15000 kPa	773.2
283.15 K, 20000 kPa	777.2
283.15 K, 25000 kPa	781.05
283.15 K, 30000 kPa	784.72
283.15 K, 35000 kPa	788.24
283.15 K, 40000 kPa	791.65
283.15 K, 45000 kPa	794.97
283.15 K, 50000 kPa	798.13
283.15 K, 55000 kPa	801.25
283.15 K, 60000 kPa	804.23
283.15 K, 65000 kPa	807.14
288.15 K, 100 kPa	754.84
288.15 K, 5000 kPa	759.82
288.15 K, 10000 kPa	764.48
288.15 K, 15000 kPa	768.83
288.15 K, 20000 kPa	772.96
288.15 K, 25000 kPa	776.9
288.15 K, 30000 kPa	780.66
288.15 K, 35000 kPa	784.28
288.15 K, 40000 kPa	787.77
288.15 K, 45000 kPa	791.13
288.15 K, 50000 kPa	794.37
288.15 K, 55000 kPa	797.51
288.15 K, 60000 kPa	800.57
288.15 K, 65000 kPa	803.54
293.15 K, 100 kPa	750.02
293.15 K, 5000 kPa	755.18
293.15 K, 10000 kPa	759.98
293.15 K, 15000 kPa	764.45
293.15 K, 20000 kPa	768.69
293.15 K, 25000 kPa	772.75
293.15 K, 30000 kPa	776.62
293.15 K, 35000 kPa	780.33
293.15 K, 40000 kPa	783.87
293.15 K, 45000 kPa	787.34
293.15 K, 50000 kPa	790.66
293.15 K, 55000 kPa	793.86
293.15 K, 60000 kPa	796.96
293.15 K, 65000 kPa	799.99
298.15 K, 100 kPa	745.17
298.15 K, 5000 kPa	750.51
298.15 K, 10000 kPa	755.44
298.15 K, 15000 kPa	760.05
298.15 K, 20000 kPa	764.43
298.15 K, 25000 kPa	768.58
298.15 K, 30000 kPa	772.55
298.15 K, 35000 kPa	776.36
298.15 K, 40000 kPa	780.01
298.15 K, 45000 kPa	783.52
298.15 K, 50000 kPa	786.91
298.15 K, 55000 kPa	790.19
298.15 K, 60000 kPa	793.36
298.15 K, 65000 kPa	796.44
303.15 K, 100 kPa	740.3
303.15 K, 5000 kPa	745.81
303.15 K, 10000 kPa	750.9
303.15 K, 15000 kPa	755.66
303.15 K, 20000 kPa	760.15
303.15 K, 25000 kPa	764.45
303.15 K, 30000 kPa	768.49
303.15 K, 35000 kPa	772.35
303.15 K, 40000 kPa	776.1
303.15 K, 45000 kPa	779.71
303.15 K, 50000 kPa	783.18
303.15 K, 55000 kPa	786.51
303.15 K, 60000 kPa	789.75
303.15 K, 65000 kPa	792.89
308.15 K, 100 kPa	735.39
308.15 K, 5000 kPa	741.09
308.15 K, 10000 kPa	746.35
308.15 K, 15000 kPa	751.24
308.15 K, 20000 kPa	755.87
308.15 K, 25000 kPa	760.26
308.15 K, 30000 kPa	764.45
308.15 K, 35000 kPa	768.44
308.15 K, 40000 kPa	772.26
308.15 K, 45000 kPa	775.95
308.15 K, 50000 kPa	779.48
308.15 K, 55000 kPa	782.89
308.15 K, 60000 kPa	786.19
308.15 K, 65000 kPa	789.36
313.15 K, 100 kPa	730.45
313.15 K, 5000 kPa	736.34
313.15 K, 10000 kPa	741.76
313.15 K, 15000 kPa	746.82
313.15 K, 20000 kPa	751.59
313.15 K, 25000 kPa	756.09
313.15 K, 30000 kPa	760.38
313.15 K, 35000 kPa	764.5
313.15 K, 40000 kPa	768.36
313.15 K, 45000 kPa	772.14
313.15 K, 50000 kPa	775.74
313.15 K, 55000 kPa	779.22
313.15 K, 60000 kPa	782.57
313.15 K, 65000 kPa	785.85
318.15 K, 100 kPa	725.44
318.15 K, 5000 kPa	731.57
318.15 K, 10000 kPa	737.2
318.15 K, 15000 kPa	742.41
318.15 K, 20000 kPa	747.31
318.15 K, 25000 kPa	751.96
318.15 K, 30000 kPa	756.38
318.15 K, 35000 kPa	760.54
318.15 K, 40000 kPa	764.55
318.15 K, 45000 kPa	768.4
318.15 K, 50000 kPa	772.07
318.15 K, 55000 kPa	775.65
318.15 K, 60000 kPa	779.08
318.15 K, 65000 kPa	782.35
323.15 K, 100 kPa	720.43
323.15 K, 5000 kPa	726.77
323.15 K, 10000 kPa	732.59
323.15 K, 15000 kPa	738
323.15 K, 20000 kPa	743.03
323.15 K, 25000 kPa	747.78
323.15 K, 30000 kPa	752.29
323.15 K, 35000 kPa	756.59
323.15 K, 40000 kPa	760.68
323.15 K, 45000 kPa	764.61
323.15 K, 50000 kPa	768.4
323.15 K, 55000 kPa	771.97
323.15 K, 60000 kPa	775.47
323.15 K, 65000 kPa	778.87
328.15 K, 100 kPa	715.37
328.15 K, 5000 kPa	721.95
328.15 K, 10000 kPa	727.94
328.15 K, 15000 kPa	733.52
328.15 K, 20000 kPa	738.72
328.15 K, 25000 kPa	743.64
328.15 K, 30000 kPa	748.27
328.15 K, 35000 kPa	752.68
328.15 K, 40000 kPa	756.87
328.15 K, 45000 kPa	760.88
328.15 K, 50000 kPa	764.73
328.15 K, 55000 kPa	768.42
328.15 K, 60000 kPa	771.99
328.15 K, 65000 kPa	775.41
333.15 K, 100 kPa	710.26
333.15 K, 5000 kPa	717.05
333.15 K, 10000 kPa	723.28
333.15 K, 15000 kPa	729.03
333.15 K, 20000 kPa	734.4
333.15 K, 25000 kPa	739.43
333.15 K, 30000 kPa	744.2
333.15 K, 35000 kPa	748.71
333.15 K, 40000 kPa	753.02
333.15 K, 45000 kPa	757.13
333.15 K, 50000 kPa	761.02
333.15 K, 55000 kPa	764.8
333.15 K, 60000 kPa	768.41
333.15 K, 65000 kPa	771.92
